Series [1] can be described thus: Phase 1a single-dose study in humans: safety. It counts as in vivo, human. The method, then: A first-in-human Phase 1a randomized, double-blind, placebo-controlled, single-dose study, was conducted in 3 stages: In Stage 1, four sequential cohorts of 8 subjects each were randomly assigned to receive progressively higher single oral administrations of Compound 2 at doses of 50, 100, 200, and 300 mg (n=6 per cohort; 3 males and 3 females) or placebo (n=2 per cohort; 1 male and 1 female).
The primary endpoint of safety was assessed by monitoring adverse events (AEs), laboratory abnormalities, and cardiac findings (ECG). Secondary endpoints included evaluation of the PK parameters of area under the plasma concentration-time curve (AUC), maximum plasma concentration (Cmax), time of maximum concentration (Tmax), apparent volume of distribution (Vd/F), terminal elimination half-life (t1/2), terminal elimination rate constant (λz), and apparent clearance (Cl/F) as well as the PD parameter of BTK inhibition in whole blood.

Another series addresses T1, CYP3A4 (Homo sapiens, UniProt P08684).
T1 construct: from tissue; host or cells: human subjects in vivo
The series is described as follows: Phase 1a study Stage 3: drug-drug interaction with itraconazole (effect of CYP3A4 inhibition). Type of series: in vivo. The note with it: for Cmax / AUC(0-t) / AUC(0-inf) / Tmax: plasma, oral; for Cmax / AUC(0-t) / AUC(0-inf): arithmetic mean (CV %); for Tmax: median (min, max). The method, then: Stage 3 evaluated 12 subjects from Cohort 6 who had already received Compound 2 in Stage 2 of the study. Compound 2 at a dose of 25 mg was administered once in the fasted state on Day 1 and subjects were followed for safety, PK and PD evaluations. On Day 4, subjects then received itraconazole (a potent CYP3A4 inhibitor) that was administered at a dose of 200 mg twice daily on Days 4 through 9 in the fed state (except at the morning dose on Day 7). In the morning of Day 7, subjects received itraconazole at a dose of 200 mg followed shortly by administration of Compound 2 at a dose of 25 mg (with both drugs given in the fasted state). Subjects were then followed for safety, PK and PD evaluations on Days 7, 8, 9, and 10. PK results observed following administration of Compound 2 alone on Day 1 were compared with those observed in these same subjects after administration of Compound 2 with itraconazole on Day 7.
The effect of the strong CYP3A4 inhibitor, itraconazole, on the pharmacokinetics of an oral dose of 25 mg Compound 2 was evaluated in 12 subjects (Table 7a). […].

A short description of another series: Single-dose PK in rat. It counts as in vivo, male Sprague Dawley rats. The note with it: male, Sprague Dawley, plasma. The method, then: (§1) A series of single-dose PK studies were conducted in rat, dog, and monkey to investigate the plasma PK of Compound 2 following single oral and single intravenous (IV) administration of Compound 2.
The PK profile of Compound 2 was evaluated in male Sprague Dawley rats (n=3) following single IV administration of Compound 2 at 1 mg/kg and single oral administration at 5 mg/kg. Following each administration serial blood samples were collected at 0 (predose), 0.08, 0.25, 0.5, 0.75, 2, 5, 10, and 24 hours postdose.

Another series in a line: Single-dose PK in dog. Type of series: in vivo, male beagle dogs. The conditions noted are these: beagle, plasma. The method, then:
as §1
A study was conducted to assess the PK of Compound 2 formulated as a suspension or as a solid in capsule. […] Three different dogs were used for each dose level. […] Inter-animal variability in Compound 2 free base plasma systemic exposure was observed after IV and oral administration irrespective of formulation.

A further series deals with T2, TXK (Homo sapiens, UniProt P42681).
T2 sequence (P42681 1-527): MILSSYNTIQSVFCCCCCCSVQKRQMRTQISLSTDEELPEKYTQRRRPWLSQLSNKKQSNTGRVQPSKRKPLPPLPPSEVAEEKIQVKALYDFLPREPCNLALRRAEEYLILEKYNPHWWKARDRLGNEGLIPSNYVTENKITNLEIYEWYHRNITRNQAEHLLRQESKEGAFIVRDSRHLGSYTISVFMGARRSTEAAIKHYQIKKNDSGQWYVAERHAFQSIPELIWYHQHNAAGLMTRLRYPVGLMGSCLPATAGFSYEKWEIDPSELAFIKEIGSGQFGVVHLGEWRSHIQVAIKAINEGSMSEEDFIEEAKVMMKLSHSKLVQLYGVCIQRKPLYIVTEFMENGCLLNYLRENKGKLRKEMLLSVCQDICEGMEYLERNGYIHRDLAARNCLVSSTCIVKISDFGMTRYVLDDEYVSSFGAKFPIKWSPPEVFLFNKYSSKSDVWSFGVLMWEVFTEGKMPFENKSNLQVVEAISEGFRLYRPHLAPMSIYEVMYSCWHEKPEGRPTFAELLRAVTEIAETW
The series is described as follows: Kinase selectivity, TXK (Kd).

For a further series, the target named is human recombinant WT BTK (Homo sapiens, UniProt Q06187). The series is described as follows: FRET recombinant kinase assay, WT BTK. Type of series: biochemical.
For the next series, the system named is CD40 expression. The series is described as follows: CpG induced CD40 expression (flow cytometry). Type of series: cell-based, human. The conditions noted are these: 3.2 μM CpG stimulation, 1 μM. The method, then:
Methods: Primary CLL B cells were isolated from the whole blood of consented patients by FICOLL density centrifugation and rosette-sep negative selection. Annexin V and propidium iodide flow cytometry was used to measure patient CLL cell viability and 7AAD was used to measure viability in stromal co-culture. CD40 and CD86 expression was evaluated via flow cytometry subsequent to sustained 3.2 μM CpG stimulation. BCR signaling in primary CLL cells was investigated by immunoblot succeeding 1 hour treatment and following 1 hour or 24 hours of incubation with Compound 1 in XLA cell lines. MTS values were read after 24 hours of drug incubation. ITK inhibition was investigated via immunoblot after stimulation with anti-CD3 and anti-CD28 and incubation with Compound 1 for 1 hour. Compound 1 was used at a concentration of 1 μM in preclinical studies unless otherwise noted.

Setting [2] is: human, Compound 2 25 mg fasted + itraconazole.
Setting [3] is: human, Compound 2 25 mg fasted, N = 12.
[4] abbreviates: 1 mg/kg, IV, dose 1, SPEW, free base measured.
[5] abbreviates: 5 mg/kg, PO, dose 5, 0.1% CMC/0.2% Tween, free base measured.
Where [6] appears, read: 1 mg/kg, IV, dose 1, 70% PEG400/H2O, free base measured.
Where [7] appears, read: male, 5 mg/kg, PO, dose not given, 0.1% CMC/0.2% Tween, free base measured.

T1 sequence (P08684 whole entry): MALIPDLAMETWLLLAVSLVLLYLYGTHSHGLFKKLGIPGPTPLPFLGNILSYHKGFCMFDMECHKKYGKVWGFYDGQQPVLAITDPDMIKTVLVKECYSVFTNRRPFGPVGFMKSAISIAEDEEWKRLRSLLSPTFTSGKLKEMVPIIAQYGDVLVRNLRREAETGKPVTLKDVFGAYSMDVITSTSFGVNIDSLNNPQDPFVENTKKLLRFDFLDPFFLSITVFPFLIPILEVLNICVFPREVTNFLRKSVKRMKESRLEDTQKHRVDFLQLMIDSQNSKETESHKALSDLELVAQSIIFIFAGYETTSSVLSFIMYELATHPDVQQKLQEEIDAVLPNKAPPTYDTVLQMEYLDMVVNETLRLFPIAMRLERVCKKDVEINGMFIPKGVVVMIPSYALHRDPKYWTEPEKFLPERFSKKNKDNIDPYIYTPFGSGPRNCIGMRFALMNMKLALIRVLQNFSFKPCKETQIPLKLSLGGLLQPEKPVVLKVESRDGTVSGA
human recombinant WT BTK, sequence (Q06187 whole entry): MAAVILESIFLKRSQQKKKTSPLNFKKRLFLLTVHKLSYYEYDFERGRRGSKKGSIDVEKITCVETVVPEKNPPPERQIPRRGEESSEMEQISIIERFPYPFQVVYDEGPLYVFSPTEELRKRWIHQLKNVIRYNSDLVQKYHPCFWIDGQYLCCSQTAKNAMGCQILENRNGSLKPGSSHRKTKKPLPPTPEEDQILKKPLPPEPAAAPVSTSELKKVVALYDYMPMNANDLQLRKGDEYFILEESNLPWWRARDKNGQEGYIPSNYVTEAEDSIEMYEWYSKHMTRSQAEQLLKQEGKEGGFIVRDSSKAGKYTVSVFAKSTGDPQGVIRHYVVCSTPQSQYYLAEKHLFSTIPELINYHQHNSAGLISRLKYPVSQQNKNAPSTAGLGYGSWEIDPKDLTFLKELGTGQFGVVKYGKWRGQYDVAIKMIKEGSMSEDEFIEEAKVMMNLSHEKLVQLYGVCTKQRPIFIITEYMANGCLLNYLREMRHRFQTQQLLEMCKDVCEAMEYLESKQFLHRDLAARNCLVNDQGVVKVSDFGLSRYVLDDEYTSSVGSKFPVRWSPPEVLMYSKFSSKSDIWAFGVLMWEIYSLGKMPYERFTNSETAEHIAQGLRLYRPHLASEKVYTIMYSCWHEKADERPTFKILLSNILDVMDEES

Take `NC(=O)[C@H]1CCN(c2ncnc(N)c2F)C[C@@H]1N1CCC[C@@H](Nc2cc(Cl)cc(C(F)(F)F)c2)C1=O` [Compound 2]: the “subjects with treatment-emergent AEs (TEAEs)” value in series [1] (24 subjects, single oral doses 50-300 mg, 8 subjects) is 33%. The “subjects with treatment-related TEAEs” value in series [1] (24 subjects, single oral doses 50-300 mg, six subjects) is reported as 25%. Further, in series [1] (single oral doses), the “Grade 3 or higher AEs” value is on record as “No Grade 3 or higher AEs were reported”. Besides, in series [1] (single oral doses), the SAEs result is recorded as “No SAEs were reported”. The dose-dependent toxicity result in series [1] (single oral doses 50-300 mg) is “No obvious pattern of dose-dependent toxicity was observed”. In addition, the CL/F on CYP3A4 (human, in vivo, 25 mg) was 6.34 (41.6) L/hr. In addition, the Vd/F on CYP3A4 (human, in vivo, 25 mg) was determined as 57.5 L. Also, the half-life is 6.9 h on CYP3A4 (human, in vivo, 25 mg); 4 h in “Single-dose PK in rat” (setting [4]); 0.8 h in “Single-dose PK in dog” (setting [6]). Besides, the Cmax on CYP3A4 (human, Compound 2 25 mg fasted + itraconazole, N = 12) was 1.68 µg/mL; on CYP3A4 (setting [3]), 0.873 µg/mL; in the series “Single-dose PK in rat” (setting [5]) it was 1.78 µg/mL; in “Single-dose PK in dog” (setting [7]) it was 2.97 µg/mL. Moreover, the AUC(0-t) at CYP3A4 (setting [2]) worked out at 28 µg·h/mL; on CYP3A4 (human, Compound 2 25 mg fasted) it was 4.42 µg·h/mL. The AUC(0-inf) on CYP3A4 (human, Compound 2 25 mg fasted + itraconazole, N = 11) is 32.2 µg·h/mL; at CYP3A4 (human, Compound 2 25 mg fasted), 4.62 µg·h/mL; in “Single-dose PK in rat” (setting [4]) it was 16.1 µg·h/mL; in “Single-dose PK in rat” (setting [5]) it was 14.6 µg·h/mL; in the series “Single-dose PK in dog” (setting [6]), 1.08 µg·h/mL; in the series “Single-dose PK in dog” (setting [7]), 3.52 µg·h/mL. The Tmax came out at 1.5 h at CYP3A4 (setting [2]), 1 h at CYP3A4 (setting [3]), 2.6 h in “Single-dose PK in rat” (setting [5]) and 0.8 h in the series “Single-dose PK in dog” (setting [7]). For the same compound, the C0 in the series “Single-dose PK in rat” (setting [4]) is 4.37 µg/mL; in the series “Single-dose PK in dog” (setting [6]), 1.93 µg/mL. The bioavailability was 18% in “Single-dose PK in rat” (5 mg/kg, PO, dose 5, 0.1% CMC/0.2% Tween, read-out: % F (oral bioavailability)) and 65% in the series “Single-dose PK in dog” (male, 5 mg/kg, PO, dose not given, 0.1% CMC/0.2% Tween, read-out: % F (oral bioavailability)).

As for `NC(=O)[C@H]1CCN(c2ncnc(N)c2F)C[C@@H]1N1CCC[C@@H](Nc2cc(Cl)cc(C(F)(F)F)c2)C1=O` [Compound 1, (3R,3′R,4′S)-1′-(6-amino-5-fluoropyrimidin-4-yl)-3-((3-chloro-5-(trifluoromethyl)phenyl)amino)-2-oxo-[1,3′-bipiperidine]-4′-carboxamide], the “increase of plasma exposure (Cmax) with itraconazole” value on CYP3A4 (25 mg Compound 2 + itraconazole vs alone) is listed as “about 2 fold”. Besides, at CYP3A4 (≥5-fold increase in exposure in the presence of CYP enzyme inhibition), the CYP3A4 substrate classification result is “sensitive substrate for CYP3A4”. The same compound came in with a Kd on TXK of at least 200 nM. Also, the IC50 on human recombinant WT BTK was 4.6 nM. The “decrease of CpG induced CD40 expression” value with CD40 expression stood at 8.7%.

Source of the values: US11174243B2, “Succinate forms and compositions of Bruton's tyrosine kinase inhibitors” (Sunesis Pharmaceuticals, Inc., priority 2016, dated 2021).
